Source: patent publication US20100099564A1, “HERBICIDE COMBINATION COMPRISING DIMETHOXYTRIAZINYL-SUBSTITUTED DIFLUOROMETHANESULFONYLANILIDES” (BAYER CROPSCIENCE AG, priority 2008, published 2010)

Columns and labels:
Format in all cases: in vivo
[1] = system: Cyperus esculentus (CYPES); assay: Post-emergence action, greenhouse pot test, visual scoring: CYPES
Experimental: (§1) Seeds or rhizome pieces of mono- and dicotyledonous harmful and useful plants were placed in peat pots (diameter 4 cm) filled with sandy loam and then covered with soil. The pots were kept in a greenhouse under optimum conditions. In addition, harmful plants encountered in paddy rice cultivation were cultivated in pots with a water level 2 cm above the soil surface.
(§2) About three weeks after the start of the cultivation, the test plants were treated at the 2- to 3-leaf stage. The herbicides, formulated as powder or liquid concentrates, were, either alone or in the combinations according to the invention, sprayed in various dosages on to the green parts of the plants using an application rate of 600 l of water/ha (converted). For further cultivation of the plants, the pots were then again kept under optimum conditions in a greenhouse.
(§3) The visual scoring of the herbicidal effects was carried out in intervals up to 21 days after the treatment. Scoring was carried out in percent in comparison to the untreated control plants. 0%=no herbicidal activity, 100%=complete herbicidal activity=complete kill.
(§4) The percentages from the treatments with the herbicides alone (=individual application) and with the combinations according to the invention (=mixtures) were employed to calculate interactions using the method of Colby. When the observed efficacies of the mixtures exceed the formal sum of the values of the tests with individual applications, they also exceed the expected value according to Colby, which is calculated using the formula below (cf. S. R. Colby; in Weeds 15 (1967) pp. 20 to 22):
(§5) Here: • A, B=activity of components A and B in percent at a dosage of a and b g of ai/ha (=gramm of active substance per hectare), respectively. • E=expected value in % at a dosage of a+b g of ai/ha.

Setaria viridis (SETVI) = assay: Post-emergence action, greenhouse pot test, visual scoring: SETVI; conditions: 21 DAT
Experimental: as §1, §2, §3, §4, §5
(§6) The combinations according to the invention of herbicides from group (A) with herbicides from group (B) were tested on a broad spectrum of important harmful plants (weed grasses, broad-leaved weeds/Cyperaceae) and useful plants: Triticum aestivum (TRZAS), Stellaria media (STEME), Lolium multiflorum (LOLMU), Veronica persica (VERPE), Alopecurus myosuroides (ALOMY), Matricaria inodora (MATIN), Brassica napus (BRSNW), Viola tricolor (VIOTR), Avena fatua (AVEFA), Amaranthus retroflexus (AMARE), Zea mays (ZEAMX), Pharbitis purpurea (PHBPU), Setaria viridis (SETVI), Fallopia (ex Polygonum) convolvulus (POLCO), Echinochloa crusgaffi (ECHCG), Abuthilon theophrasti (ABUTH), Cyperus esculentus (CYPES), Oryza sativa (ORYSA).
(§7) Of particular interest are the results shown in the tables (Tab.) below, where the following key is used: • (1) EPPO code (former Bayer code) for the treated plant (see above) • (2) Time of scoring: DAT (days after treatment) • (3) Component A tested (identifying number) • (4) Component B tested (identifying number) • (5) Dosage component A [g of ai/ha] • (6) Dosage component B [g of ai/ha] • (7) % activity found • (8) E value (calculated according to Colby; see above) • (9) Comments: “SYNERGY” =synergistic interaction (E value<% activity found); “SAFENING”=safener action on useful plant (E value>% activity found)

[2] = system: Echinochloa crusgaffi (ECHCG); assay: Post-emergence action, greenhouse pot test, visual scoring: ECHCG; conditions: for (7) % activity found: 10 DAT
Experimental: as §1, §2, §3, §4, §5, §6, §7

Avena fatua (AVEFA) = assay: Post-emergence action, greenhouse pot test, visual scoring: AVEFA; conditions: for % activity found: 10 DAT; for (7) % activity found: 21 DAT
Experimental: as §1, §2, §3, §4, §5, §6, §7

[3] = system: Lolium multiflorum (LOLMU); assay: Post-emergence action, greenhouse pot test, visual scoring: LOLMU; conditions: for % activity found: 10 DAT; for (7) % activity found: 21 DAT
Experimental: as §1, §2, §3, §4, §5, §6, §7

[4] = system: Alopecurus myosuroides (ALOMY); assay: Post-emergence action, greenhouse pot test, visual scoring: ALOMY; conditions: 21 DAT
Experimental: as §1, §2, §3, §4, §5

[5] = system: Triticum aestivum (TRZAS); assay: Post-emergence action, greenhouse pot test, visual scoring: TRZAS
Experimental: as §1, §2, §3, §4, §5, §6, §7

Oryza sativa (ORYSA) = assay: Post-emergence action, greenhouse pot test, visual scoring: ORYSA
Experimental: as §1, §2, §3, §4, §5, §6, §7

[6] = system: Abuthilon theophrasti (ABUTH); assay: Post-emergence action, greenhouse pot test, visual scoring: ABUTH; conditions: 21 DAT
Experimental: as §1, §2, §3, §4, §5, §6, §7

[7] = system: Fallopia (ex Polygonum) convolvulus (POLCO); assay: Post-emergence action, greenhouse pot test, visual scoring: POLCO; conditions: 21 DAT
Experimental: as §1, §2, §3, §4, §5, §6, §7

Viola tricolor (VIOTR) = assay: Post-emergence action, greenhouse pot test, visual scoring: VIOTR; conditions: rate (5) 4
Experimental: as §1, §2, §3, §4, §5, §6, §7

[8] = system: Pharbitis purpurea (PHBPU); assay: Post-emergence action, greenhouse pot test, visual scoring: PHBPU; conditions: for % activity found: dose (5) 4
Experimental: as §1, §2, §3, §4, §5, §6, §7

Stellaria media (STEME) = assay: Post-emergence action, greenhouse pot test, visual scoring: STEME; conditions: 10 DAT
Experimental: as §1, §2, §3, §4, §5, §6, §7

Zea mays (ZEAMX) = assay: Post-emergence action, greenhouse pot test, visual scoring: ZEAMX
Experimental: as §1, §2, §3, §4, §5, §6, §7

Veronica persica (VERPE) = assay: Post-emergence action, greenhouse pot test, visual scoring: VERPE; conditions: 21 DAT
Experimental: as §1, §2, §3, §4, §5, §6, §7

[9] = system: Matricaria inodora (MATIN); assay: Post-emergence action, greenhouse pot test, visual scoring: MATIN; conditions: 10 DAT, A 12 g of ai/ha
Experimental: as §1, §2, §3, §4, §5

COc1cc(OC)nc(NC(=O)NS(=O)(=O)Nc2ccccc2C(=O)C2CC2)n1 [B7-7, N-[[[2-(cyclopropylcarbonyl)phenyl]amino]sulfonyl]-N′-(4,6-dimethoxy-2-pyrimidinyl)urea]
(7) % activity found ([1]; 10 DAT, rate (6) 18): 0%
(7) % activity found ([1]; 21 DAT, rate (6) 18): 40%
(7) % activity found (Setaria viridis (SETVI); rate (6) 18): 20%
(7) % activity found (Setaria viridis (SETVI); rate (6) 54): 20%
(7) % activity found ([2]; rate (6) 18): 0%
(7) % activity found ([2]; rate (6) 54): 0%
% activity found (Avena fatua (AVEFA); dose (6) 18): 0%
% activity found (Avena fatua (AVEFA); dose (6) 54): 30%
(7) % activity found (Avena fatua (AVEFA); rate (6) 18): 0%
(7) % activity found (Avena fatua (AVEFA); rate (6) 54): 10%
% activity found ([3]; dose (6) 18): 0%
% activity found ([3]; dose (6) 54): 0%
(7) % activity found ([3]; rate (6) 18): 0%
(7) % activity found ([3]; rate (6) 54): 0%
(7) % activity found ([4]; rate (6) 18): 30%
(7) % activity found ([4]; rate (6) 54): 40%
(7) % activity found ([5]; 21 DAT, rate (6) 18): 0%
(7) % activity found ([5]; 21 DAT, rate (6) 54): 0%

COc1nc(OC)nc(C(=O)c2cccc(F)c2N(C)S(=O)(=O)C(F)F)n1 [A-1]
(7) % activity found ([1]; 10 DAT, rate (5) 4): 70%
(7) % activity found ([1]; 10 DAT, rate (5) 12): 70%
(7) % activity found ([1]; 21 DAT, rate (5) 4): 80%
(7) % activity found ([1]; 21 DAT, rate (5) 12): 80%
(7) % activity found (Oryza sativa (ORYSA); 10 DAT, rate (5) 4): 10%
(7) % activity found (Oryza sativa (ORYSA); 10 DAT, rate (5) 12): 10%
(7) % activity found (Oryza sativa (ORYSA); 21 DAT, rate (5) 4): 0%
(7) % activity found (Oryza sativa (ORYSA); 21 DAT, rate (5) 12): 10%
(7) % activity found (Setaria viridis (SETVI); rate (5) 4): 0%
(7) % activity found (Setaria viridis (SETVI); rate (5) 12): 20%
% activity found ([6]; dose (5) 4): 85%
% activity found ([6]; dose (5) 12): 85%
(7) % activity found ([7]; rate (5) 4): 75%
(7) % activity found ([7]; rate (5) 12): 70%
(7) % activity found ([2]; rate (5) 12): 70%
% activity found ([2]; 21 DAT, dose (5) 4): 85%
(7) % activity found (Viola tricolor (VIOTR); 10 DAT): 20%
(7) % activity found (Viola tricolor (VIOTR); 21 DAT): 0%
(7) % activity found (Avena fatua (AVEFA); rate (5) 4): 10%
(7) % activity found (Avena fatua (AVEFA); rate (5) 12): 30%
(7) % activity found ([3]; rate (5) 4): 0%
(7) % activity found ([3]; rate (5) 12): 10%
% activity found ([8]; 10 DAT): 60%
% activity found ([8]; 21 DAT): 60%
(7) % activity found ([8]; 21 DAT, rate (5) 12): 65%
% activity found (Stellaria media (STEME); dose (5) 4): 70%
% activity found (Stellaria media (STEME); dose (5) 12): 70%
(7) % activity found (Zea mays (ZEAMX); 10 DAT, rate (5) 4): 0%
(7) % activity found (Zea mays (ZEAMX); 10 DAT, rate (5) 12): 0%
(7) % activity found (Zea mays (ZEAMX); 21 DAT, rate (5) 12): 0%
(7) % activity found (Veronica persica (VERPE); rate (5) 4): 30%
(7) % activity found (Veronica persica (VERPE); rate (5) 12): 40%
(7) % activity found ([4]; rate (5) 4): 40%
(7) % activity found ([4]; rate (5) 12): 50%
(7) % activity found ([5]; 10 DAT, rate (5) 4): 0%
(7) % activity found ([5]; 10 DAT, rate (5) 12): 0%
(7) % activity found ([5]; 21 DAT, rate (5) 4): 0%
(7) % activity found ([5]; 21 DAT, rate (5) 12): 0%
% activity found [9]: 70%
